Common to all, as to assay type: cell-based
The test system of assay [1] is Staphylococcus aureus. In words: MIC in 96 well microtiter plate, S. aureus. The following applies: TSB, 5×10^5 CFU/mL, 37° C. As for the experimental part: (§1) The antimicrobial activity of 5-fluorouracil (FU) was studied by determining minimal inhibitory concentrations (MIC) in a 96 well microtiter plate. Briefly, serial two-fold dilutions of FU were performed in TSB. A suspension of each microorganism from Table 1 was added to wells at a concentration of 5×10^5 CFU/mL, and the microtiter plates were incubated at 37° C. The MIC was defined, as the lowest concentration of an antimicrobial required for total inhibition of a test microorganism at 37° C. 5-Fluorouracil was active against all the pathogens tested (Table 1).

In assay [2] the test system is Pseudomonas aeruginosa. Put plainly: MIC in 96 well microtiter plate, P. aeruginosa. To be noted: TSB, 5×10^5 CFU/mL, 37° C. How it is done: as §1
Assay [3] concerns Burkholderia cepacia. Put plainly: MIC in 96 well microtiter plate, B. cepacia. The following applies: TSB, 5×10^5 CFU/mL, 37° C. As for the experimental part: as §1
Assay [4] concerns cystic fibrosis-associated pathogens. Put plainly: antimicrobial activity (MIC) against all pathogens tested. To be noted: pathogens of Table 1. How it is done: as §1

Each structure is given as a SMILES string. In brackets after ≈: the same amount, converted by molar mass.

The term MIC denotes the lowest concentration found to suppress growth. Low values mean inhibition by little substance, high ones a need for much substance.

As to `O=c1[nH]cc(F)c(=O)[nH]1` [5-Fluorouracil, 5-fluoro-2,4(1H,3H)-Pyrimidinedione], the MIC in assay [1] is 25 µg/mL (≈ 192 µM); in assay [2], 31.2 µg/mL (≈ 240 µM); in assay [3], 62.5 µg/mL (≈ 480 µM). The “antimicrobial activity against all the pathogens tested” value in assay [4] was “active”.

The values are drawn from patent publication US8617542B2, “DispersinB™, 5-fluorouracil, deoxyribonuclease I and proteinase K-based antibiofilm compositions and uses thereof” (Kane Biotech Inc., priority 2008, dated 2013).
